Where “and” joins values, the source holds several entries; their conditions need not be identical. Identical values can stand only once. Like-named read-outs stand apart in the source and are kept apart here.
Molecular target: C. elegans (N2) complex I (NADH:ubiquinone oxidoreductase) (Caenorhabditis elegans, UniProt P24887+Q93873+Q94360)
Test: biochemical
Format: biochemical
Conditions: for IC50: read-out: C. elegans Complex I IC50
Summary of the method: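 Mitochondria, 0.2 mg/mL protein, freeze-thawed three times, assayed in 25 mM KPi pH 7.5 with BSA, 80 μM NADH, 60 μM decylubiquinone, 160 μM DCIP, antimycin A and KCN. Rate from initial linear slope of A600 over 15 min. % of solvent control.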

[1] = wild-type C. elegans, mean of replicates, read-out: in vitro complex I activity relative to solvent control, Mean
[2] = wild-type C. elegans, single replicate, read-out: in vitro complex I activity relative to solvent control, individual replicate

C. elegans (N2) complex I (NADH:ubiquinone oxidoreductase), sequence (Q94360 17-199): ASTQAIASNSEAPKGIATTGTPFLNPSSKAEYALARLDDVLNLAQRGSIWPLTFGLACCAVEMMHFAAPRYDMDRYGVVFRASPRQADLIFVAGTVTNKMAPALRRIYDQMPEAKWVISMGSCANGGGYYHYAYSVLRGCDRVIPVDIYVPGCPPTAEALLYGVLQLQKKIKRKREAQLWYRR
C. elegans (N2) complex I (NADH:ubiquinone oxidoreductase), sequence (P24887 whole entry): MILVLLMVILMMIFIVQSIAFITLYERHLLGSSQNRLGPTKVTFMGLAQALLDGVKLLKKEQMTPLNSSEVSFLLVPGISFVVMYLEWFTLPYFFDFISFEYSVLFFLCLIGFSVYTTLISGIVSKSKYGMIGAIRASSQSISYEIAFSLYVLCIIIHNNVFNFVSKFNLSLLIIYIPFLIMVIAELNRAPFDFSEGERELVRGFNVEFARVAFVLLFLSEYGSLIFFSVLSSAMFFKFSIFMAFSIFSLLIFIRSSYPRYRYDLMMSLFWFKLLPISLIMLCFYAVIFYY
C. elegans (N2) complex I (NADH:ubiquinone oxidoreductase), sequence (Q93873 31-482): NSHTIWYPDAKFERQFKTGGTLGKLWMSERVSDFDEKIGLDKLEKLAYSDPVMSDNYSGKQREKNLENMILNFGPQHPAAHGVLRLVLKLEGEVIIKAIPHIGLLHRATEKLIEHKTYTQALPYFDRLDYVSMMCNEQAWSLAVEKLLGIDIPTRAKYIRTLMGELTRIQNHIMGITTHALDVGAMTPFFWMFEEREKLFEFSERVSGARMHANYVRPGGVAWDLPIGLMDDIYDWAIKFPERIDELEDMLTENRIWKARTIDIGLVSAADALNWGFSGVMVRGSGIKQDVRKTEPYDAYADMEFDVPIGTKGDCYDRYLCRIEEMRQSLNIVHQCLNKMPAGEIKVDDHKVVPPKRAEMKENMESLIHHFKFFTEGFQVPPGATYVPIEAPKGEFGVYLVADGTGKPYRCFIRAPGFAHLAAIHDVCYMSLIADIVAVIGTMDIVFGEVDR

C=C(C)[C@H]1Cc2c(ccc3c2O[C@@H]2COc4cc(OC)c(OC)cc4[C@@H]2C3=O)O1 [Rotenone, reference compound]
activity at 100 µM (100 µM compound, relative to solvent control, mean (SEM), read-out: % Activity Complex I): 0%
activity at 100 µM (100 μM inhibitor, in vitro activity relative to solvent control, N2 C. elegans mitochondria, single replicate, read-out: CI Activity): 0%
activity at 100 µM (100 μM of NPD compound, C. elegans mitochondria, individual biological replicates, read-out: Percent in vitro activity, Complex I (single replicate Rep1-Rep4)): 0%
activity at 100 µM (100 μM of NPD compound, C. elegans mitochondria, mean of four biological replicates, read-out: Percent in vitro activity, Complex I (Mean)): 0%
Absorbance DCIP [600nm], complex I (30 s, single replicate): 1.265 and 1.244 and 1.248
Absorbance DCIP [600nm], complex I (60 s, single replicate): 1.261 and 1.240 and 1.243
Absorbance DCIP [600nm], complex I (90 s, single replicate): 1.257 and 1.236 and 1.240
Absorbance DCIP [600nm], complex I (120 s, single replicate): 1.252 and 1.232 and 1.237
Absorbance DCIP [600nm], complex I (150 s, single replicate): 1.248 and 1.229 and 1.234
Absorbance DCIP [600nm], complex I (180 s, single replicate): 1.244 and 1.226 and 1.230
Absorbance DCIP [600nm], complex I (210 s, single replicate): 1.240 and 1.223 and 1.227
Absorbance DCIP [600nm], complex I (240 s, single replicate): 1.237 and 1.219 and 1.223
Absorbance DCIP [600nm], complex I (270 s, single replicate): 1.233 and 1.216 and 1.220 and 1.199
Absorbance DCIP [600nm], complex I (300 s, single replicate): 1.229 and 1.212 and 1.216 and 1.196
Absorbance DCIP [600nm], complex I (330 s, single replicate): 1.225 and 1.209 and 1.213 and 1.193
Absorbance DCIP [600nm], complex I (360 s, single replicate): 1.221 and 1.206 and 1.210 and 1.190
Absorbance DCIP [600nm], complex I (390 s, single replicate): 1.218 and 1.203 and 1.206 and 1.187
Absorbance DCIP [600nm], complex I (420 s, single replicate): 1.214 and 1.199 and 1.203 and 1.185
Absorbance DCIP [600nm], complex I (450 s, single replicate): 1.210 and 1.196 and 1.200 and 1.182
Absorbance DCIP [600nm], complex I (480 s, single replicate): 1.206 and 1.193 and 1.197 and 1.179
Absorbance DCIP [600nm], complex I (510 s, single replicate): 1.203 and 1.190 and 1.193 and 1.176
Absorbance DCIP [600nm], complex I (540 s, single replicate): 1.199 and 1.187 and 1.190 and 1.174
Absorbance DCIP [600nm], complex I (570 s, single replicate): 1.195 and 1.183 and 1.187
Absorbance DCIP [600nm], complex I (600 s, single replicate): 1.192 and 1.180 and 1.184
Absorbance DCIP [600nm], complex I (630 s, single replicate): 1.188 and 1.177 and 1.181
Absorbance DCIP [600nm], complex I (660 s, single replicate): 1.185 and 1.174 and 1.177
Absorbance DCIP [600nm], complex I (690 s, single replicate): 1.181 and 1.171 and 1.174
Absorbance DCIP [600nm], complex I (720 s, single replicate): 1.178 and 1.168 and 1.171
Absorbance DCIP [600nm], complex I (750 s, single replicate): 1.174 and 1.164 and 1.168
Absorbance DCIP [600nm], complex I (780 s, single replicate): 1.171 and 1.161 and 1.165
Absorbance DCIP [600nm], complex I (810 s, single replicate): 1.167 and 1.158 and 1.162
Absorbance DCIP [600nm], complex I (840 s, single replicate): 1.164 and 1.155 and 1.159
Absorbance DCIP [600nm], complex I (870 s, single replicate): 1.161 and 1.152 and 1.156
Absorbance DCIP [600nm], complex I (900 s, single replicate): 1.157 and 1.149 and 1.153
remaining activity at 0.0001 µM [1]: 95.7%
remaining activity at 0.0001 µM [2]: 90.6%
remaining activity at 0.0005 µM [1]: 104%
remaining activity at 0.0005 µM [2]: 108%
remaining activity at 0.001 µM (dose 0.001 µM, wild-type C. elegans, mean of replicates, read-out: in vitro complex I activity relative to solvent control, Mean): 104%
remaining activity at 0.0025 µM [1]: 110%
remaining activity at 0.0025 µM [2]: 108%
remaining activity at 0.005 µM [1]: 101%
remaining activity at 0.005 µM [2]: 97%
remaining activity at 0.013 µM [1]: 90.6%
remaining activity at 0.013 µM [2]: 89.2%
remaining activity at 0.025 µM (dose 0.025 µM, wild-type C. elegans, mean of replicates, read-out: in vitro complex I activity relative to solvent control, Mean): 89.6%
remaining activity at 0.063 µM [1]: 27%
remaining activity at 0.063 µM [2]: 21.5%
remaining activity at 0.125 µM [1]: 26.8%
remaining activity at 0.125 µM [2]: 17.8%
remaining activity at 0.313 µM (dose 0.313 µM, wild-type C. elegans, mean of replicates, read-out: in vitro complex I activity relative to solvent control, Mean): 0.682%
remaining activity at 0.625 µM (dose 0.625 µM, wild-type C. elegans, mean of replicates, read-out: in vitro complex I activity relative to solvent control, Mean): 0.888%
remaining activity at 1.5 µM (dose 1.5 µM, wild-type C. elegans, mean of replicates, read-out: in vitro complex I activity relative to solvent control, Mean): 7.71%
remaining activity at 3 µM (dose 3 µM, wild-type C. elegans, mean of replicates, read-out: in vitro complex I activity relative to solvent control, Mean): 5.32%
remaining activity at 15 µM (dose 15 µM, wild-type C. elegans, mean of replicates, read-out: in vitro complex I activity relative to solvent control, Mean): 5.62%
remaining activity at 37.5 µM (dose 37.5 µM, wild-type C. elegans, mean of replicates, read-out: in vitro complex I activity relative to solvent control, Mean): 6.72%
remaining activity at 75 µM (dose 75 µM, wild-type C. elegans, mean of replicates, read-out: in vitro complex I activity relative to solvent control, Mean): 3.64%
IC50 (wild-type (N2) mitochondria): 45 nM

CCCn1c(COc2ccc(C)cc2)nc2ccccc21 [Compound 6944471]
activity at 0.0001 µM (Dose 0.0001 µM, read-out: C. elegans mitochondrial complex I activity): 95.2%
activity at 0.0005 µM (Dose 0.0005 µM, read-out: C. elegans mitochondrial complex I activity): 103%
activity at 0.001 µM (Dose 0.001 µM, read-out: C. elegans mitochondrial complex I activity): 96.6%
activity at 0.0025 µM (Dose 0.0025 µM, read-out: C. elegans mitochondrial complex I activity): 100%
activity at 0.005 µM (Dose 0.005 µM, read-out: C. elegans mitochondrial complex I activity): 90.8%
activity at 0.013 µM (Dose 0.013 µM, read-out: C. elegans mitochondrial complex I activity): 108%
activity at 0.025 µM (Dose 0.025 µM, read-out: C. elegans mitochondrial complex I activity): 106%
activity at 0.063 µM (Dose 0.063 µM, read-out: C. elegans mitochondrial complex I activity): 111%
activity at 0.125 µM (Dose 0.125 µM, read-out: C. elegans mitochondrial complex I activity): 123%
activity at 0.313 µM (Dose 0.313 µM, read-out: C. elegans mitochondrial complex I activity): 103%
activity at 0.625 µM (Dose 0.625 µM, read-out: C. elegans mitochondrial complex I activity): 113%
activity at 1.5 µM (Dose 1.5 µM, read-out: C. elegans mitochondrial complex I activity): 107%
activity at 3 µM (Dose 3 µM, read-out: C. elegans mitochondrial complex I activity): 96.1%
activity at […] (Dose 7.5 µM, read-out: C. elegans mitochondrial complex I activity): 108%
activity at 15 µM (Dose 15 µM, read-out: C. elegans mitochondrial complex I activity): 88.5%
activity at 37.5 µM (Dose 37.5 µM, read-out: C. elegans mitochondrial complex I activity): 89.5%
activity at 75 µM (Dose 75 µM, read-out: C. elegans mitochondrial complex I activity): 64.7%
IC50 (wild-type C. elegans mitochondria, estimated from fitted dose-response curves): > 75000 nM

O=C(NCCc1ccc(Cl)cc1)c1ccccc1C(F)(F)F [Wact-11]
% Activity Complex I (100 µM compound, relative to solvent control, mean (SEM)): 84.83 (1.45) %
CI Activity (100 μM inhibitor, in vitro activity relative to solvent control, N2 C. elegans mitochondria, Mean): 84.830%
Percent in vitro activity, Complex I (single replicate Rep1-Rep4) (100 μM of NPD compound, C. elegans mitochondria, individual biological replicates): 83.274% and 93.104% and 79.669%
Percent in vitro activity, Complex I (Mean) (100 μM of NPD compound, C. elegans mitochondria, mean of four biological replicates): 84.830%
